Laboratory results: article PMC6940986, “Structural Insights into the Intracellular Region of the Human Magnesium Transport Mediator CNNM4” (International Journal of Molecular Sciences, 2019)

Target: T1, hCNNM4BAT (CNNM4BAT) (Homo sapiens, UniProt Q6P4Q7)
T1 construct: gene CNNM4; Bateman module (CBS1-CBS2) with helix H0; for NMR U-15N, N-terminal His6-V5-TEV site tag (pET151-D/TOPO), tag cleavage not described; E. coli BL21 CodonPlus; homodimer (CBS module)
Assay: 2D […]-HSQC NMR titration; 1H STD NMR
Assay type: binding
Details: estimated; no Mg2+ added; 100 mM HEPES, pH 7.4 preset (7.2 in results), 100 mM NaCl, 298 K; 100 uM protein

T1 sequence (Q6P4Q7 359-511): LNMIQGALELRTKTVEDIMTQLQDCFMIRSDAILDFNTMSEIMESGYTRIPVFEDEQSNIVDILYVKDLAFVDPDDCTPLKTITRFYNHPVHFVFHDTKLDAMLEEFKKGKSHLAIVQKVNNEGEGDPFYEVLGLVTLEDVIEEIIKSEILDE

KD: ~ 10^−2 to 10^−3 M
SMILES: Nc1ncnc2c1ncn2[C@@H]1O[C@H](COP(=O)(O)OP(=O)(O)NP(=O)(O)O)[C@@H](O)[C@H]1O [ADPNP]
